{"source": "patent US6555126B2", "about": "“Method for treating, controlling, and preventing Diabetes Mellitus” (Diabex, Inc., priority 1999, dated 2003)", "key": {"[1]": {"tested_on": "rats (Rattus rattus)", "assay": "LD 50 determination in rats, single subcutaneous dose", "format": "in vivo", "details": "one single dose subcutaneously", "protocol": "1. LD 50: For this determination, 59 rats (Rattus rattus) of both sexes were used with body weights of 200-240 grams to determine the LD50. The rats were divided into groups consisting of 5-6 rats each.\nThe rats were fed standard laboratory pellet diet and water ad libitum. Linalool was given as one single dose subcutaneously to rats in gradually increasing doses of 0.2 ml/kg body weight, […], 0.3 ml/kg, 0.35 ml/kg, 0.40 ml/kg, 0.45 ml/kg, 0.50 ml/kg, 0.55 ml/kg, 0.60 ml/kg, 0.65 ml/kg.\nLD 50 was determined to be 0.63 ml/kg body weight."}, "[2]": {"tested_on": "normoglycemic rats", "assay": "Hypoglycemic effect of a single intraperitoneal injection in normoglycemic rats", "format": "in vivo", "from_the_text": "(§1) Preparation of Animals: For each experiment, eight (8) overnight fasted normoglycemic and diabetic rats were used. The animals were kept in the experimental animal laboratory for three days with free access to food and water.\n(§2) On the day of the experiment, blood samples were collected at zero time before IP injection of the test substance (Riedel De Hein—Germany), and at intervals as given in Table 1 and 2. Blood samples were drawn from the ear vein in 100 micro millimeter heparinized capillary tubes.\n(§3) Blood glucose concentrations were determined according to glucose oxidase method, using glucose enzymatic kits (Biomerioux France).\n(§4) The percentage change in glycaemia was calculated.\n(§5) For control animals, sterile saline solution was used instead of Linalool.\n(§6) Data are expressed as means and standard error of the mean (S.E.M.) statistical analysis were performed using student's t test."}, "[3]": {"tested_on": "Streptozocin diabetic rats", "assay": "Hypoglycemic effect of a single intraperitoneal injection in Streptozocin diabetic (hyperglycemic) rats", "format": "in vivo", "protocol": "as §1\nHyperglycemia was induced in the diabetic group of rats by a single intraperitoneal injection of Streptozocin (Upjohn Co, Kalamazoo, Mich., USA). […] body weight-freshly dissolved in citrate phosphate buffer with pH adjusted to 4.5.\nDiabetes was confirmed one week after administration of Streptozocin by determining the fasting blood glucose concentration. […] The fasting blood glucose concentration in normal rats is 90-120 mg/dl.\nas §2, §3, §4, §5, §6"}, "[4]": {"tested_on": "diabetic volunteers (Diabetes Mellitus)", "assay": "Limited clinical study in diabetic volunteers", "format": "in vivo, human", "parameters": "key to readings (blood glucose) / Fasting Blood Sugar: blood glucose in mg/dl", "protocol": "The study was conducted with strict and continuous monitoring of all vital physical parameters of all volunteers. No clinical or biochemical side effects were observed during or after the test periods. Special attention was made while monitoring Blood Urea, Serum Creatinine, SGPT, Cholesterol, and Triglycerides.\nThe study involved over 200 diabetic volunteers with different types of Diabetes Mellitus and from different countries, and of both sexes. The breakdown was as follows:\nGroup One: Two (2) volunteers were new Diabetes Mellitus patients (Virgin cases).\nThese volunteers had never been treated for the disease and never taken any of the known and standard Diabetes Mellitus medications.\nStarted using Linalool Enteric Coated Softgels 0.45 ml 3 times daily with meals, on Feb. 22nd, 1999.\nGroup Two: One (1) volunteer had hyper insulinemia with readings of 400 mg/dl of glucose\nThe study involved over two hundred diabetic volunteers of both sexes, who had the disease from 3 to 25 years. In various lots, the volunteers were on insulin alone, insulin and hypoglycemic drugs, or hypoglycemic drugs alone. The patients took the product in the form of softgel enteric coated capsules (0.5 ml Linalool and 100 mg vitamin E) one capsule with meals three times a day. The duration of treatment was minimum three months. The product was given along with the classical hypoglycemic treatment (insulin and others). These classical hypoglycemic medications, Insulin—morning and evening, and Daonil (Glibenclamide 5 mg), Glucaphage (metformin 850 mg and other medications, were decreased gradually depending on the monitored improvements of the patient condition."}, "[5]": {"details": "Group Two volunteer, hyper insulinemia, June 24, 1999"}}}
{"molecule": "C=CC(C)(O)CCC=C(C)C", "note": "(stereo not drawn) [Linalool, 3,7 dimethyl-1,6-octadien-3-ol]", "values": [{"measurement": "LD 50", "setting": "[1]", "value": 0.63, "unit": "ml/kg body weight"}, {"measurement": "Change in blood glucose % at 15 min.", "setting": "[2]; Table 1, normoglycemic rats, 0.2 ml/kg single i.p. injection, 15 min", "value": "−36.1", "unit": "%"}, {"measurement": "Change in blood glucose % at 1 h.", "setting": "[2]; Table 1, normoglycemic rats, 0.2 ml/kg single i.p. injection", "value": "−35.2", "unit": "%"}, {"measurement": "Change in blood glucose % at 1 h.", "setting": "[2]; Table 2, normoglycemic rats, 0.2 ml/kg single i.p. injection, mean ± S.E.M.", "value": "−35.2 ± 6.2", "unit": "%"}, {"measurement": "Change in blood glucose % at 4 h.", "setting": "[2]; Table 2, normoglycemic rats, 0.2 ml/kg single i.p. injection, 4 h, mean ± S.E.M.", "value": "−40.9 ± 8.2", "unit": "%"}, {"measurement": "Change in blood glucose % at 24 h.", "setting": "[2]; Table 2, normoglycemic rats, 0.2 ml/kg single i.p. injection, 24 h, mean ± S.E.M.", "value": "−18.9 ± 4.4", "unit": "%"}, {"measurement": "hypoglycemic activity within the first four hours after the administration", "setting": "[2]; first of two values, normoglycemic rats (first hour)", "value": 33.2, "unit": "%"}, {"measurement": "time of highest hypoglycemic activity after the intraperitoneal injection", "setting": "[2]; normoglycemic rats", "value": "four"}, {"measurement": "decrease in blood glucose concentration within the first 15 min", "setting": "[2]; normoglycemic rats treated by Linalool", "value": 36.1, "unit": "%"}, {"measurement": "hypoglycemic activity (in words)", "setting": "[2]; normoglycemic rats, i.p. injection", "value": "significant hypoglycemic activity"}, {"measurement": "Change in blood glucose % at 15 min.", "setting": "[3]; Table 1, hyperglycemic rats, 0.2 ml/kg single i.p. injection, 15 min", "value": "−32.1", "unit": "%"}, {"measurement": "Change in blood glucose % at 1 h.", "setting": "[3]; Table 1, hyperglycemic rats, 0.2 ml/kg single i.p. injection", "value": "−35", "unit": "%"}, {"measurement": "Change in blood glucose % at 1 h.", "setting": "[3]; Table 2, hyperglycemic rats, 0.2 ml/kg single i.p. injection, mean ± S.E.M.", "value": "−36.4 ± 8.6", "unit": "%"}, {"measurement": "Change in blood glucose % at 4 h.", "setting": "[3]; Table 2, hyperglycemic rats, 0.2 ml/kg single i.p. injection, 4 h, mean ± S.E.M.", "value": "−43.7 ± 6.6", "unit": "%"}, {"measurement": "Change in blood glucose % at 24 h.", "setting": "[3]; Table 2, hyperglycemic rats, 0.2 ml/kg single i.p. injection, 24 h, mean ± S.E.M.", "value": "−55.8 ± 6.2", "unit": "%"}, {"measurement": "time of highest hypoglycemic activity after the injection", "setting": "[3]; hyperglycemic rats", "value": 24, "unit": "h"}, {"measurement": "decrease in blood glucose concentration within the first 15 min", "setting": "[3]; hyperglycemic rats treated by Linalool", "value": 32.1, "unit": "%"}, {"measurement": "hypoglycemic activity (in words)", "setting": "[3]; hyperglycemic rats, i.p. injection", "value": "significant hypoglycemic activity"}, {"measurement": "hypoglycemic activity within the first four hours after the administration", "setting": "[3]; second of two values, hyperglycemic rats (first hour)", "value": 36.4, "unit": "%"}, {"measurement": "readings (blood glucose)", "setting": "[4]; Group Three volunteer 4, Dec. 17", "value": 175, "unit": "mg/dL"}, {"measurement": "readings (blood glucose)", "setting": "[4]; Group Three volunteer 4, Dec. 24", "value": 163}, {"measurement": "readings (blood glucose)", "setting": "[4]; Group Three volunteer 4, Jul. 26, 1999", "value": 105, "unit": "mg/dL"}, {"measurement": "clinical outcome (physician's judgement)", "setting": "[4]; Group Three volunteer 4, July 14th, taken off all medication", "value": "CURED"}, {"measurement": "HbAlc Readings (lowered to)", "setting": "[4]; Group Three volunteer 4, Jun. 4, 1999", "value": 6.18, "unit": "%"}, {"measurement": "readings (blood glucose)", "setting": "[4]; Group Three volunteer 4, Jun. 18", "value": 109}, {"measurement": "readings (blood glucose)", "setting": "[4]; Group Three volunteer 4, Jun. 26", "value": 105}, {"measurement": "HbAlc Readings, starting value (lowered from)", "setting": "[4]; Group Three volunteer 4, date not stated", "value": 9.3, "unit": "%"}, {"measurement": "Fasting Blood Sugar", "setting": "[4]; Group Three volunteer 5, diabetic over 20 years, Jul. 27, 1998", "value": 233, "unit": "mg/dL"}, {"measurement": "HbAlc", "setting": "[4]; [5]", "value": 7.5, "unit": "%"}, {"measurement": "Insulin, Fasting", "setting": "[4]; [5]", "value": 25.6, "unit": "uU/mL"}, {"measurement": "Serum Glucose, Fasting", "setting": "[4]; [5]", "value": 222, "unit": "mg/dL"}, {"measurement": "Serum Glucose, Fasting", "setting": "[4]; Group Two volunteer, hyper insulinemia, May 17, 1999, untreated reading 197 mg/dl", "value": 200, "unit": "mg/dL"}, {"measurement": "HbAlc", "setting": "[4]; Group Two volunteer, hyper insulinemia, May 17, 1999, untreated reading 8.2%", "value": 8.1, "unit": "%"}, {"measurement": "Insulin, Fasting", "setting": "[4]; Group Two volunteer, hyper insulinemia, May 17, 1999, untreated reading 42 uU/mL", "value": 18.40, "unit": "uU/mL"}, {"measurement": "reduction of fasting insulin level", "setting": "[4]; Group Two volunteer, from 42 uU/mL to 25.6", "value": "~50", "unit": "%"}, {"measurement": "Fasting Blood Sugar", "setting": "[4]; volunteer 5, Aug. 17, 1998", "value": 190}, {"measurement": "HbAlc", "setting": "[4]; volunteer 5, Aug. 17, 1998", "value": 10.1, "unit": "%"}, {"measurement": "Fasting Blood Sugar", "setting": "[4]; volunteer 5, Jan. 27, 1999", "value": 167}, {"measurement": "HbAlc", "setting": "[4]; volunteer 5, Jan. 27, 1999", "value": 7.0, "unit": "%"}, {"measurement": "HbAlc", "setting": "[4]; volunteer 5, Jul. 27, 1998", "value": 11.2, "unit": "%"}, {"measurement": "Fasting Blood Sugar", "setting": "[4]; volunteer 5, Nov. 1, 1998", "value": 114}, {"measurement": "Fasting Blood Sugar", "setting": "[4]; volunteer 5, Nov. 12, 1998", "value": 135}, {"measurement": "HbAlc", "setting": "[4]; volunteer 5, Nov. 12, 1998", "value": 7.5, "unit": "%"}, {"measurement": "Fasting Blood Sugar", "setting": "[4]; volunteer 5, Sep. 17, 1998", "value": 166}, {"measurement": "HbAlc", "setting": "[4]; volunteer 5, Sep. 17, 1998", "value": 9.7, "unit": "%"}]}
{"molecule": "insulin: short acting soluble insulin preparation, 5 units injected IP as comparator [reference compound]", "values": [{"measurement": "decrease in blood glucose concentration within the first 15 min", "setting": "[2]; insulin injection, called insignificant, rat group not stated", "value": 17.1, "unit": "%"}, {"measurement": "decrease in blood glucose concentration after one hour", "setting": "[2]; normoglycemic rats, 5 units of insulin injected IP", "value": 49, "unit": "%"}, {"measurement": "decrease in blood glucose concentration after one hour", "setting": "[3]; hyperglycemic rats, 5 units of insulin injected IP", "value": 47.1, "unit": "%"}]}
